{
  "source": "patent US10799464B2",
  "about": "“Delivery systems” (Textile-Based Delivery, Inc., priority 2014, dated 2020)",
  "key": {"[1]": {"assay": "Informal wear test of aspirin sleeve", "assay_type": "in vivo", "conditions": "sleeve worn on the elbow or knee", "source_text": "(§1) Aspirin (acetylsalicylic acid) was ground to a fine powder and dispersed at 25% wt/wt in Novagard 200-260. This was imbibed into a texturized 70 Denier nylon yarn, then plied with a textured 70 Denier nylon yarn. The yarn was then knitted into several sleeves."}, "[2]": {"assay": "Release test on fabric swatches after washing or dyeing (retention of active), absorbance at 280 nm", "assay_type": "physicochemical", "method": "This Example provides exemplary release tests on fabrics from yarns of the disclosure. These release measurements were performed on small swatches of fabric produced from yarn of the disclosure, and washed or otherwise stressed before release testing. Release was used to quantify how much active is retained intact after the stress. No coating was necessary for this test. Retention of active through stresses such as washes and scouring is a key distinguishing benefit of yarns of this disclosure and enables medicated fabrics that can be applied in a wide range of applications that demand washability in order to be commercially viable.\nas §1\nWashing with hot detergent water was then done once (on swatch #2), 5 times (swatch #3), or 10 times (swatch #4). Swatch #1 was the control with zero washings. Each swatch, a fixed 1-inch square, was placed in water for release, and after two days the absorbance measured at 280 nanometers.\nAnother sleeve was dyed using a standard dyeing process, which included scouring at the upper limit of the normal range of temperatures in dyeing, namely 220° F. for 45 minutes. […] Over 50% potency was retained through this intense process."}, "[3]": {"conditions": "typical topical cream, depending on the severity of pain; cited from earlier work"}, "[4]": {"assay": "Use testing of allantoin-loaded yarn", "assay_type": "in vivo", "conditions": "25% in RTV imbibed into 40 Denier texturized nylon yarn", "source_text": "Allantoin, which is frequently used as an active in skin creams, was dispersed in RTV at 25%, and this matrix imbibed into a 40 Denier texturized nylon yarn. Some of this was plied with a 40 Denier nylon yarn. Another portion was air-covered with a spandex yarn."}, "[5]": {"assay": "Franz cell transdermal delivery test", "experimental": "This was then tested in a Franz cell apparatus (Zyleris Pharmatech) for its ability to deliver the active (arecoline) transdermally.\nThe test article, in this case the aforementioned arecoline-loaded fabric, was placed atop a small piece of freshly excised skin, in this case from a pig's ear; below the skin was a reservoir containing bovine serum albumin buffer to simulate blood plasma. In order to reach the reservoir, the active had to diffuse transdermally across the layer of skin. Three such Franz cells were used so that the experiment was done in triplicate. A small aliquot was drawn from each reservoir at the 24-hour point and tested for arecoline as now described.\nA reference arecoline solution was prepared by dissolving approximately 3 milligrams arecoline hydrobromide (ScienceLab.com) in approximately 0.5 milliliters of bovine serum albumin buffer, for an approximate concentration of about 6 milligrams/milliliter. The reference solution was spotted alongside all three samples (labelled R7, R8 and R9) on a TLC plate at the origin. After driving out the water from the spots with heat, the spotted TLC plate was allowed to cool, then developed in 100% methanol inside a developing tank. […]"}},
  "data": [
    {"smiles": "CC(=O)Oc1ccccc1C(=O)O", "note": "[Aspirin, acetylsalicylic acid]", "values": [
      {"measurement": "analgesia (in words)", "setting": "[1]", "value": "significant analgesia"},
      {"measurement": "Absorbance (at 280 nm)", "setting": "[2]; 1 wash with hot detergent water, 1-inch square swatch in water, two days", "value": 0.077},
      {"measurement": "Absorbance (at 280 nm)", "setting": "[2]; 5 washes with hot detergent water, 1-inch square swatch in water, two days", "value": 0.038},
      {"measurement": "Absorbance (at 280 nm)", "setting": "[2]; 10 washes with hot detergent water, 1-inch square swatch in water, two days", "value": 0.045},
      {"measurement": "Absorbance (at 280 nm)", "setting": "[2]; Control (0 washes), 1-inch square swatch in water, two days", "value": 0.097},
      {"measurement": "Absorbance (at 280 nm)", "setting": "[2]; Dyed (scouring at 220° F. for 45 minutes)", "value": 0.051},
      {"measurement": "retention of the active", "setting": "[2]; after 10 washings", "value": "about 45%"},
      {"measurement": "potency retained", "setting": "[2]; after standard dyeing process, scouring 220° F. for 45 minutes", "value": "Over 50%"}
    ]},
    {"smiles": "COc1cc(CNC(=O)CCCC/C=C/C(C)C)ccc1O", "note": "[capsaicin]", "values": [
      {"measurement": "effective daily dose for relief in the foot, ankle, and calf", "setting": "[3]", "value": "0.5 to 6", "unit": "mg"}
    ]},
    {"smiles": "NC(=O)NC1NC(=O)NC1=O", "note": "(stereo not drawn) [Allantoin]", "values": [
      {"measurement": "skin effect (in words)", "setting": "[4]", "value": "skin-soothing, softening effect"}
    ]},
    {"smiles": "COC(=O)C1=CCCN(C)C1", "note": "[arecoline]", "values": [
      {"measurement": "concentration of arecoline in the reservoirs", "setting": "[5]; 24-hour point, uncoated fabric of polyester yarn imbibed with 10% arecoline hydrobromide in Novagard 200-260, TLC spot intensity vs reference", "value": "~5", "unit": "milligrams/milliliters"},
      {"measurement": "transdermal delivery (in words)", "setting": "[5]; pig ear skin Franz cell model, imbibed yarn", "value": "effective"}
    ]}
  ]
}
